Source: the supplement of paper PMC11061612

Assays:
Test in all cases: Bliss excess, mean over the matrix (fraction); higher = more synergy
[1] = tested on: COLO-668 (Small Cell Lung Carcinoma)
Procedure, shortened: (§1)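 Bliss excess equals the observed combination effect minus the expected value EA + EB − EA·EB, where EA and EB are the effects of each agent alone. Combination Emax is the second-highest inhibition within the matrix. Inhibition was scaled from CellTiter-Glo 2.0 luminescence, with 0 set by vehicle wells and 1 by blank wells, after 72 hours of two-drug dosing of cells plated in 1536-well plates.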

[2] = tested on: EFO-21 (Ovarian Carcinoma)
Procedure, shortened: as §1

[3] = tested on: HAL-01 (B-Lymphoblastic Leukemia)
Procedure, shortened: as §1

[4] = tested on: HCC1937 (Breast Carcinoma)
Procedure, shortened: as §1

[5] = tested on: KMRC-1 (Kidney Carcinoma)
Procedure, shortened: as §1

[6] = tested on: KOPN-8 (B-Lymphoblastic Leukemia)
Procedure, shortened: as §1

[7] = tested on: ME-180 (Cervical Carcinoma)
Procedure, shortened: as §1

[8] = tested on: ML-2 (Acute Myeloid Leukemia)
Procedure, shortened: as §1

[9] = tested on: MOLT-4 (T-Lymphoblastic Leukemia)
Procedure, shortened: as §1

[10] = tested on: MV-4-11 (Acute Myeloid Leukemia)
Procedure, shortened: as §1

[11] = tested on: NCI-H1355 (Lung Adenocarcinoma)
Procedure, shortened: as §1

[12] = tested on: NCI-H1838 (Lung Adenocarcinoma)
Procedure, shortened: as §1

[13] = tested on: NCI-H1993 (Lung Adenocarcinoma)
Procedure, shortened: as §1

[14] = tested on: NCI-H650 (Lung Adenocarcinoma)
Procedure, shortened: as §1

[15] = tested on: SNU-387 (Hepatocellular Carcinoma)
Procedure, shortened: as §1

[16] = tested on: SW982 (Other Solid Carcinomas)
Procedure, shortened: as §1

[17] = tested on: CADO-ES1 (Ewing's Sarcoma)
Procedure, shortened: as §1

[18] = tested on: G-401 (Other Solid Carcinomas)
Procedure, shortened: as §1

[19] = tested on: LC-1-sq (Squamous Cell Lung Carcinoma)
Procedure, shortened: as §1

[20] = tested on: OACM5-1 (Esophageal Adenocarcinoma)
Procedure, shortened: as §1

Structure (SMILES)	Bliss excess [1]	Bliss excess [2]	Bliss excess [3]	Bliss excess [4]	Bliss excess [5]	Bliss excess [6]	Bliss excess [7]	Bliss excess [8]	Bliss excess [9]	Bliss excess [10]	Bliss excess [11]	Bliss excess [12]	Bliss excess [13]	Bliss excess [14]	Bliss excess [15]	Bliss excess [16]	Bliss excess [17]	Bliss excess [18]	Bliss excess [19]	Bliss excess [20]
CS(=O)(=O)CCNCc1ccc(-c2ccc3ncnc(Nc4ccc(OCc5cccc(F)c5)c(Cl)c4)c3c2)o1 [Lapatinib] + NC1(c2ccc(-c3nc4ccn5c(=O)[nH]nc5c4cc3-c3ccccc3)cc2)CCC1 [MK-2206] (first compound max 10 µM, 7x7, partner max 10 µM)	-0.0393	0.0024	0.0687	-0.0343	0.0098	-0.0586	0.0315	0.0017	0.0866	0.0371	0.0319	-0.0422	-0.0147	-0.0464	0.0033	-0.0099				
C=CCn1c(=O)c2cnc(Nc3ccc(N4CCN(C)CC4)cc3)nc2n1-c1cccc(C(C)(C)O)n1 [AZD1775] + C1CN(CCC1(C(=O)N[C@@H](CCO)C2=CC=C(C=C2)Cl)N)C3=NC=NC4=C3C=CN4 [Capivasertib] (first compound max 3 µM, partner max 3 µM)	-0.0726	-0.0991	-0.0528	-0.0385	-0.0762	0.0369	0.0063	-0.0148	0.0536		0.0046	-0.0978	-0.0096	0.0136	-0.0435	-0.0415	0.006	-0.0241	-0.128	-0.0553
CCc1c2c(nc3ccc(O)cc13)-c1cc3c(c(=O)n1C2)COC(=O)[C@]3(O)CC [SN-38] + O=C(c1cc(Cc2n[nH]c(=O)c3ccccc23)ccc1F)N1CCN(C(=O)C2CC2)CC1 [Olaparib] (first compound max 0.3 µM, 7x7, partner max 10 µM)	0.0738	0.0601	0.0568		0.0508	0.0271	0.0915	0.0633	0.0881	0.0486	0.0271		0.0628		-0.0372	0.0384	0.0253		0.0716	0.0474
CN(C)CCCOc1ccc(-c2ccc3ncc4c(c3c2)n(C2CCOCC2)c(=O)n4C)cn1 [AZD0156] + O=C(c1cc(Cc2n[nH]c(=O)c3ccccc23)ccc1F)N1CCN(C(=O)C2CC2)CC1 [Olaparib] (first compound max 3 µM, partner max 3 µM)	-0.0077	-0.0149	0.191	0.0316	-0.0316	0.31	0.0444	0.117	0.123		0.0176	-0.0093	-0.0191	-0.014	0.0072	0.0903	0.285	0.0269	-0.0374	-0.0162
CN(CCO)CC[C@H](CSc1ccccc1)Nc1ccc(S(=O)(=O)NC(=O)c2ccc(N3CCC([C@@H](O)c4ccccc4-c4ccc(Cl)cc4)CC3)cc2)cc1S(=O)(=O)C(F)(F)F [AZD4320] + C=CCn1c(=O)c2cnc(Nc3ccc(N4CCN(C)CC4)cc3)nc2n1-c1cccc(C(C)(C)O)n1 [AZD1775] (first compound max 1 µM, partner max 1 µM)	0.0801	-0.078	0.0695	0.0878	0.0036	0.0016	-0.0304	-0.0228	0.0674		0.0162	-0.0311	0.0951	0.0369	0.0102	0.0247	-0.005	-0.0058	0.0279	-0.01
Cc1c2c(nn1C)CSCc1cc(n(C)n1)CSc1cc(c3ccccc3c1)OCCCc1c(C(=O)O)n(C)c3c-2c(Cl)ccc13 [AZD5991] + Cc1cc2ncnn2cc1Nc1ncc2c(n1)n(C1CCOCC1)c(=O)n2C [AZD7648] (first compound max 1 µM, 7x7, partner max 10 µM)	0.0003	-0.116	0.0227	-0.015	-0.0161	-0.0816	-0.009	-0.0314	-0.0072	-0.0151	-0.0055	-0.0929	-0.0225	-0.0101	-0.0318	-0.0232	-0.0296	-0.167	0.0048	
O=C(c1cc(Cc2n[nH]c(=O)c3ccccc23)ccc1F)N1CCN(C(=O)C2CC2)CC1 [Olaparib] + Cc1c2c(nn1C)CSCc1cc(n(C)n1)CSc1cc(c3ccccc3c1)OCCCc1c(C(=O)O)n(C)c3c-2c(Cl)ccc13 [AZD5991] (first compound max 10 µM, 7x7, partner max 1 µM)	-0.0495	-0.0533	-0.0229		-0.0784		-0.0363	0.0318	0.0336	0.0735	-0.0595		-0.0275		-0.0935	-0.0011				
